Data taken from US6479435B1, “Diaryl ethers and processes for their preparation and herbicidal and desiccant compositions containing them” (ISK Americas Incorporated, priority 1997, dated 2002).

Experiments:
Assay type in all cases: in vivo
[1] = system: large crabgrass (Digitaria sanguinalis, DIGSA); experiment: Pre-emerge greenhouse herbicide test, phytotoxicity rating; conditions: 14 days after application, rating scale 0-100
Method in brief: (§1)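 Seeds sown in sandy loam one day before track-sprayer application of acetone solutions at 125–1000 g ai/ha (187 l/ha), then surface-watered to incorporate and bottom-watered. Injury scored visually at 14 days on a 0–100 scale (0 no damage, 100 complete death).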

[2] = system: ivyleaf morningglory (Ipomoea hederacea, IPOHE); experiment: as above; conditions: 14 days after application, rating scale 0-100
Method in brief: as §1

[3] = system: green foxtail (Setaria viridis, SETVI); experiment: as above; conditions: 14 days after application, rating scale 0-100
Method in brief: as §1

[4] = system: Johnsongrass (Sorghum halepense, SORHA); experiment: as above; conditions: 14 days after application, rating scale 0-100
Method in brief: as §1

[5] = system: redroot pigweed (Amaranthus retroflexus, AMARE); experiment: as above; conditions: 14 days after application, rating scale 0-100
Method in brief: as §1

[6] = system: velvetleaf (Abutilon theophrasti, ABUTH); experiment: as above; conditions: 14 days after application, rating scale 0-100
Method in brief: as §1

[7] = system: barnyardgrass (Echinochloa crusgalli, ECHCG); experiment: as above; conditions: 14 days after application, rating scale 0-100
Method in brief: as §1

[8] = system: sicklepod (Cassia obtusifolia, CASOB); experiment: as above; conditions: 14 days after application, rating scale 0-100
Method in brief: as §1

[9] = system: lambsquarters (Chenopodium album, CHEAL); experiment: as above; conditions: 14 days after application, rating scale 0-100
Method in brief: as §1

[10] = system: common ragweed (Ambrosia artemisiifolia L., AMBEL); experiment: as above; conditions: 14 days after application, rating scale 0-100
Method in brief: as §1

[11] = system: large crabgrass (Digitaria sanguinalis, DIGSA); experiment: Post-emerge greenhouse herbicide test, phytotoxicity rating; conditions: 14 days after application
Method in brief: (§2)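 Plants at the 2-3 leaf stage, sown 8-21 days earlier, were track-sprayed post-emergence with compound in acetone plus 0.25% v/v non-ionic surfactant at 63-1000 g ai/ha (187 l/ha). Damage was rated at 14 days on a 0-100 scale (0 none, 100 all plants dead), for both crop injury and weed control.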

[12] = system: ivyleaf morningglory (Ipomoea hederacea, IPOHE); experiment: as above; conditions: 14 days after application
Method in brief: as §2

[13] = system: green foxtail (Setaria viridis, SETVI); experiment: as above; conditions: 14 days after application
Method in brief: as §2

[14] = system: Johnsongrass (Sorghum halepense, SORHA); experiment: as above; conditions: 14 days after application
Method in brief: as §2

[15] = system: redroot pigweed (Amaranthus retroflexus, AMARE); experiment: as above; conditions: 14 days after application
Method in brief: as §2

[16] = system: velvetleaf (Abutilon theophrasti, ABUTH); experiment: as above; conditions: 14 days after application
Method in brief: as §2

[17] = system: barnyardgrass (Echinochloa crusgalli, ECHCG); experiment: as above; conditions: 14 days after application
Method in brief: as §2

[18] = system: lambsquarters (Chenopodium album, CHEAL); experiment: as above; conditions: 14 days after application
Method in brief: as §2

[19] = system: soybean (Glycine max L., var. Pella 86, SOY); experiment: Post-emerge greenhouse test, crop damage rating; conditions: 14 days after application
Method in brief: as §2

[20] = system: field corn (Zea mays L., var. Dekalb 535, CORN); experiment: Pre-emerge greenhouse test, crop damage rating; conditions: 14 days after application, rating scale 0-100
Method in brief: as §1

[21] = system: upland rice (Oryza sp., var.Tebonnet, RICE); experiment: Pre-emerge greenhouse test, crop damage rating; conditions: 14 days after application, rating scale 0-100
Method in brief: as §1

[22] = system: common ragweed (Ambrosia artemisiifolia L., AMBEL); experiment: Post-emerge greenhouse herbicide test, phytotoxicity rating; conditions: 14 days after application
Method in brief: as §2

[23] = system: soybean (Glycine max L., var. Pella 86, SOY); experiment: Pre-emerge greenhouse test, crop damage rating; conditions: 14 days after application, rating scale 0-100
Method in brief: as §1

[24] = system: field corn (Zea mays L., var. Dekalb 535, CORN); experiment: Post-emerge greenhouse test, crop damage rating; conditions: 14 days after application
Method in brief: as §2

[25] = system: upland rice (Oryza sp., var.Tebonnet, RICE); experiment: Post-emerge greenhouse test, crop damage rating; conditions: 14 days after application
Method in brief: as §2

N#Cc1cc([N+](=O)[O-])ccc1Oc1cc(-n2c(=O)n3n(c2=S)CCCC3)c(F)cc1Cl [Compound 8-12]
phytotoxicity rating DIGSA ([1]; 125 g ai/ha): 0 | phytotoxicity rating DIGSA ([1]; 500 g ai/ha): 50 | phytotoxicity rating IPOHE ([2]; 125 g ai/ha): 0 | phytotoxicity rating IPOHE ([2]; 500 g ai/ha): 70 | phytotoxicity rating SETVI ([3]; 125 g ai/ha): 0 | phytotoxicity rating SETVI ([3]; 500 g ai/ha): 70 | phytotoxicity rating SORHA ([4]; 125 g ai/ha): 0 | phytotoxicity rating SORHA ([4]; 500 g ai/ha): 40 | phytotoxicity rating AMARE ([5]; 125 g ai/ha): 90 | phytotoxicity rating AMARE ([5]; 500 g ai/ha): 100 | phytotoxicity rating ABUTH ([6]; 125 g ai/ha): 95 | phytotoxicity rating ABUTH ([6]; 500 g ai/ha): 100 | phytotoxicity rating ECHCG ([7]; 125 g ai/ha): 0 | phytotoxicity rating ECHCG ([7]; 500 g ai/ha): 0 | phytotoxicity rating CASOB ([8]; 125 g ai/ha): 0 | phytotoxicity rating CASOB ([8]; 500 g ai/ha): 0 | phytotoxicity rating CHEAL ([9]; 125 g ai/ha): 100 | phytotoxicity rating CHEAL ([9]; 500 g ai/ha): 100 | phytotoxicity rating AMBEL ([10]; 125 g ai/ha): 90 | phytotoxicity rating AMBEL ([10]; 500 g ai/ha): 90 | DIGSA phytotoxicity rating (0-100) ([11]; 63 g al/ha): 0 | DIGSA phytotoxicity rating (0-100) ([11]; 500 g al/ha): 0 | IPOHE phytotoxicity rating (0-100) ([12]; 63 g al/ha): 80 | IPOHE phytotoxicity rating (0-100) ([12]; 500 g al/ha): 70 | SETVI phytotoxicity rating (0-100) ([13]; 63 g al/ha): 0 | SETVI phytotoxicity rating (0-100) ([13]; 500 g al/ha): 30 | SORHA phytotoxicity rating (0-100) ([14]; 63 g al/ha): 0 | SORHA phytotoxicity rating (0-100) ([14]; 500 g al/ha): 50 | AMARE phytotoxicity rating (0-100) ([15]; 63 g al/ha): 70 | AMARE phytotoxicity rating (0-100) ([15]; 500 g al/ha): 100 | ABUTH phytotoxicity rating (0-100) ([16]; 63 g al/ha): 100 | ABUTH phytotoxicity rating (0-100) ([16]; 500 g al/ha): 100 | ECHCG phytotoxicity rating (0-100) ([17]; 63 g al/ha): 0 | ECHCG phytotoxicity rating (0-100) ([17]; 500 g al/ha): 40 | CHEAL phytotoxicity rating (0-100) ([18]; 63 g al/ha): 80 | CHEAL phytotoxicity rating (0-100) ([18]; 500 g al/ha): 70 | SOY crop damage rating (0-100) ([19]; 63 g al/ha): 50 | SOY crop damage rating (0-100) ([19]; 500 g al/ha): 60 | crop damage rating CORN ([20]; 125 g ai/ha): 0 | crop damage rating CORN ([20]; 500 g ai/ha): 0 | crop damage rating RICE ([21]; 125 g ai/ha): 20 | crop damage rating RICE ([21]; 500 g ai/ha): 50 | AMBEL phytotoxicity rating (0-100) ([22]; 63 g al/ha): 50 | AMBEL phytotoxicity rating (0-100) ([22]; 500 g al/ha): 70 | crop damage rating SOY ([23]; 125 g ai/ha): 0 | crop damage rating SOY ([23]; 500 g ai/ha): 0 | CORN crop damage rating (0-100) ([24]; 63 g al/ha): 0 | CORN crop damage rating (0-100) ([24]; 500 g al/ha): 0 | RICE crop damage rating (0-100) ([25]; 63 g al/ha): 0 | RICE crop damage rating (0-100) ([25]; 500 g al/ha): 30

CCOC(=O)C(C)Oc1ccc(Oc2cc(-n3c(=O)n4n(c3=S)CCCC4)c(F)cc2Cl)cc1 (stereo not shown) [Compound 8-11]
phytotoxicity rating DIGSA ([1]; 125 g ai/ha): 20 | phytotoxicity rating DIGSA ([1]; 500 g ai/ha): 80 | phytotoxicity rating IPOHE ([2]; 125 g ai/ha): 70 | phytotoxicity rating IPOHE ([2]; 500 g ai/ha): 100 | phytotoxicity rating SETVI ([3]; 125 g ai/ha): 90 | phytotoxicity rating SETVI ([3]; 500 g ai/ha): 100 | phytotoxicity rating SORHA ([4]; 125 g ai/ha): 70 | phytotoxicity rating SORHA ([4]; 500 g ai/ha): 40 | phytotoxicity rating AMARE ([5]; 125 g ai/ha): 100 | phytotoxicity rating AMARE ([5]; 500 g ai/ha): 100 | phytotoxicity rating ABUTH ([6]; 125 g ai/ha): 100 | phytotoxicity rating ABUTH ([6]; 500 g ai/ha): 100 | phytotoxicity rating ECHCG ([7]; 125 g ai/ha): 60 | phytotoxicity rating ECHCG ([7]; 500 g ai/ha): 70 | phytotoxicity rating CASOB ([8]; 125 g ai/ha): 70 | phytotoxicity rating CASOB ([8]; 500 g ai/ha): 60 | phytotoxicity rating CHEAL ([9]; 125 g ai/ha): 100 | phytotoxicity rating CHEAL ([9]; 500 g ai/ha): 100 | phytotoxicity rating AMBEL ([10]; 125 g ai/ha): 95 | phytotoxicity rating AMBEL ([10]; 500 g ai/ha): 100 | DIGSA phytotoxicity rating (0-100) ([11]; 63 g al/ha): 50 | DIGSA phytotoxicity rating (0-100) ([11]; 500 g al/ha): 90 | IPOHE phytotoxicity rating (0-100) ([12]; 63 g al/ha): 100 | IPOHE phytotoxicity rating (0-100) ([12]; 500 g al/ha): 100 | SETVI phytotoxicity rating (0-100) ([13]; 63 g al/ha): 30 | SETVI phytotoxicity rating (0-100) ([13]; 500 g al/ha): 60 | SORHA phytotoxicity rating (0-100) ([14]; 63 g al/ha): 90 | SORHA phytotoxicity rating (0-100) ([14]; 500 g al/ha): 99 | AMARE phytotoxicity rating (0-100) ([15]; 63 g al/ha): 100 | AMARE phytotoxicity rating (0-100) ([15]; 500 g al/ha): 100 | ABUTH phytotoxicity rating (0-100) ([16]; 63 g al/ha): 100 | ABUTH phytotoxicity rating (0-100) ([16]; 500 g al/ha): 100 | ECHCG phytotoxicity rating (0-100) ([17]; 63 g al/ha): 100 | ECHCG phytotoxicity rating (0-100) ([17]; 500 g al/ha): 100 | CHEAL phytotoxicity rating (0-100) ([18]; 63 g al/ha): 100 | CHEAL phytotoxicity rating (0-100) ([18]; 500 g al/ha): 100 | SOY crop damage rating (0-100) ([19]; 63 g al/ha): 90 | SOY crop damage rating (0-100) ([19]; 500 g al/ha): 100 | crop damage rating CORN ([20]; 125 g ai/ha): 0 | crop damage rating CORN ([20]; 500 g ai/ha): 0 | crop damage rating RICE ([21]; 125 g ai/ha): 50 | crop damage rating RICE ([21]; 500 g ai/ha): 80 | AMBEL phytotoxicity rating (0-100) ([22]; 63 g al/ha): 100 | AMBEL phytotoxicity rating (0-100) ([22]; 500 g al/ha): 100 | crop damage rating SOY ([23]; 125 g ai/ha): 20 | crop damage rating SOY ([23]; 500 g ai/ha): 30 | CORN crop damage rating (0-100) ([24]; 63 g al/ha): 20 | CORN crop damage rating (0-100) ([24]; 500 g al/ha): 95 | RICE crop damage rating (0-100) ([25]; 63 g al/ha): 40 | RICE crop damage rating (0-100) ([25]; 500 g al/ha): 50
